Results as given in ChEMBL document CHEMBL1149715, “Inhibition of the Mycobacterium tuberculosis enoyl acyl carrier protein reductase InhA by arylamides” (Bioorg Med Chem, 2007).
In brackets after ≈: the same amount, converted by molar mass.

These molecules were tested against T1, Enoyl-[acyl-carrier-protein] reductase [NADH] (Mycobacterium tuberculosis, UniProt P9WGR1).
T1 sequence (P9WGR1 whole entry): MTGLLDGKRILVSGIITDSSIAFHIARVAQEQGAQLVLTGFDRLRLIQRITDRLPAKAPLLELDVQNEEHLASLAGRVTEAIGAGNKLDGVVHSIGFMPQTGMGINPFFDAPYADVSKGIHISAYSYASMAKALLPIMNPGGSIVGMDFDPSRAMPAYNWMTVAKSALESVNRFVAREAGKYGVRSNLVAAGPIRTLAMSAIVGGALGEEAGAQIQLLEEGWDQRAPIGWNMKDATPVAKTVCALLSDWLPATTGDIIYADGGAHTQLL
Description: Inhibition of Mycobacterium tuberculosis InhA

Compound | IC50 [µM]
Cc1ccc(C(=O)N2CCN(c3ccccc3)CC2)cc1 | 16.6
Cc1cccc(C(=O)N2CCN(c3cccc(Cl)c3)CC2)c1 | 9.43
Cc1ccc(C(=O)N2CCN(c3cccc(Cl)c3)CC2)cc1C | 0.99
O=C(c1ccc(F)cc1)N1CCN(c2cccc(Cl)c2)CC1 | 9.74
Cc1ccc(C(=O)N2CCN(c3cccc(C(F)(F)F)c3)CC2)cc1C | 1.85
CC(C)(C)c1ccc(C(=O)N2CCN(c3cccc(Cl)c3)CC2)cc1 | > 100
CC(C)(C)c1ccc(C(=O)N2CCN(c3cccc(C(F)(F)F)c3)CC2)cc1 | > 100
O=C(c1cccc(Cl)c1)N1CCN(c2cccc(Cl)c2)CC1 | 6.73
O=C(c1ccc(Cl)c(Cl)c1)N1CCN(c2ccccc2)CC1 | 17.6
O=C(c1ccccc1)N1CCN(Cc2ccccc2)CC1 | 31.5
O=C(c1cccc(Cl)c1)N1CCC(Cc2ccccc2)CC1 | 7.74
Cc1ccc(C(=O)N2CCC(Cc3ccccc3)CC2)cc1 | 5.16
Cc1cccc(C(=O)N2CCC(Cc3ccccc3)CC2)c1 | 7.39
O=C(c1ccccc1)N1CCN(C2c3ccccc3-c3ccccc32)CC1 | 0.09
O=C(c1ccccc1)N1CCN(c2ccccc2)CC1 | 38.9
O=C(c1ccc2[nH]ccc2c1)N1CCN(C(c2ccc(F)cc2)c2ccc(F)cc2)CC1 | 1.04
Cc1ccc(C(=O)N2CCN(C(c3ccc(F)cc3)c3ccc(F)cc3)CC2)cc1 | 1.89
O=C(c1ccccc1)N1CCN(C(c2ccc(F)cc2)c2ccc(F)cc2)CC1 | 2.04
Cc1ccc(C(=O)N2CCN(C3c4ccccc4-c4ccccc43)CC2)cc1 | 0.4
CC(C)c1ccc(C(=O)N2CCN(c3cccc(Cl)c3)CC2)cc1 | > 100
O=C(c1ccccc1F)N1CCN(c2cccc(Cl)c2)CC1 | 13.9
Cc1ccc(C(=O)N2CCN(c3cccc(C(F)(F)F)c3)CC2)cc1 | 6.26
Cc1cccc(C(=O)N2CCN(c3ccc([N+](=O)[O-])cc3)CC2)c1 | 15.5
Cc1ccc(N2CCN(C(=O)c3ccc(C(C)(C)C)cc3)CC2)cc1Cl | > 100
O=C(c1ccc(Cl)c(Cl)c1)N1CCN(c2cccc(Cl)c2)CC1 | 6.05
Cc1ccc(C(=O)N2CCN(c3cccc(Cl)c3)CC2)cc1 | 3.07
O=C(c1ccccc1F)N1CCC(Cc2ccccc2)CC1 | 14.1

Each molecule was assayed on Mycobacterium tuberculosis (assay: Antibacterial activity against Mycobacterium tuberculosis H37Rv by Alamar blue assay).
Assay type: functional

Compound | MIC [µM]
O=C(c1ccc2[nH]ccc2c1)N1CCN(C(c2ccc(F)cc2)c2ccc(F)cc2)CC1 | 62.5 (≈ 27 µg/mL)
O=C(c1ccccc1)N1CCN(C(c2ccc(F)cc2)c2ccc(F)cc2)CC1 | 125 (≈ 49.1 µg/mL)
Cc1cccc(C(=O)N2CCN(c3ccc([N+](=O)[O-])cc3)CC2)c1 | 125 (≈ 40.7 µg/mL)
